Test system: 379773-124-R-J2-PDC spheroid viability
Assay: Anticancer human tumor 379773-124-R-J2-PDC patient-derived endometrial carcinoma cell line growth inhibition [POLQ]
Conditions: spheroids with HUVEC and MSC; for IC50: curve of first compound; for viability, T/C: stronger effect = lower value
Method in brief: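 Patient-derived tumour cells were co-cultured with HUVEC and mesenchymal stem cells as multicellular spheroids at 37 °C. They were treated with POLQ inhibitors (novobiocin, ART-558, RP6685) alone or combined with other agents. Top concentrations were at or near clinical Cmax (otherwise 10 microM; SN-38 at 1 microM), decreasing in half-log steps.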

[1] = second compound 0.0316 µM, first compound 0.0316 µM
[2] = second compound 0.0316 µM, first compound 0.1 µM
[3] = second compound 0.0316 µM, first compound 0.316 µM
[4] = second compound 0.0316 µM, first compound 1 µM
[5] = second compound 0.0316 µM, first compound 3.16 µM
[6] = second compound 0.0316 µM, first compound 10 µM
[7] = second compound 0.1 µM, first compound 0.0316 µM
[8] = second compound 0.1 µM, first compound 0.1 µM
[9] = second compound 0.1 µM, first compound 0.316 µM
[10] = second compound 0.1 µM, first compound 1 µM
[11] = second compound 0.1 µM, first compound 3.16 µM
[12] = second compound 0.1 µM, first compound 10 µM
[13] = second compound 0.316 µM, first compound 0.0316 µM
[14] = second compound 0.316 µM, first compound 0.1 µM
[15] = second compound 0.316 µM, first compound 0.316 µM
[16] = second compound 0.316 µM, first compound 1 µM
[17] = second compound 0.316 µM, first compound 3.16 µM
[18] = second compound 0.316 µM, first compound 10 µM
[19] = second compound 1 µM, first compound 0.0316 µM
[20] = second compound 1 µM, first compound 0.1 µM
[21] = second compound 1 µM, first compound 0.316 µM
[22] = second compound 1 µM, first compound 1 µM
[23] = second compound 1 µM, first compound 3.16 µM
[24] = second compound 1 µM, first compound 10 µM
[25] = second compound 3.16 µM, first compound 0.0316 µM
[26] = second compound 3.16 µM, first compound 0.1 µM
[27] = second compound 3.16 µM, first compound 0.316 µM
[28] = second compound 3.16 µM, first compound 1 µM
[29] = second compound 3.16 µM, first compound 3.16 µM
[30] = second compound 3.16 µM, first compound 10 µM
[31] = second compound 10 µM, first compound 0.0316 µM
[32] = second compound 10 µM, first compound 0.1 µM
[33] = second compound 10 µM, first compound 0.316 µM
[34] = second compound 10 µM, first compound 1 µM
[35] = second compound 10 µM, first compound 3.16 µM
[36] = second compound 10 µM, first compound 10 µM
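Also: spheroids exposed to drugs for seven days before readout.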
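For viability, T/C in this document: percent viability relative to DMSO vehicle control taken as 100%.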

SMILES: COc1ccc([C@@H](O)c2cc(-c3ncnc4cc(N5CCOCC5)ccc34)c(F)cc2Cl)nn1 + Cc1cccc(N(C)C(=O)C2C(O)CCN2c2nc(C)cc(C(F)(F)F)c2C#N)c1
- IC50 (second compound 0.0316 µM): 6.33 µM
- IC50 (second compound 0.1 µM): 5.88 µM
- IC50 (second compound 0.316 µM): 7 µM
- IC50 (second compound 1 µM): 6.79 µM
- IC50 (second compound 3.16 µM): 6.78 µM
- IC50 (second compound 10 µM): 6.19 µM
- viability, T/C [1]: 81.3%
- viability, T/C [2]: 83.6%
- viability, T/C [3]: 94.3%
- viability, T/C [4]: 96.3%
- viability, T/C [5]: 75%
- viability, T/C [6]: 33.5%
- viability, T/C [7]: 87%
- viability, T/C [8]: 89.6%
- viability, T/C [9]: 92%
- viability, T/C [10]: 87.1%
- viability, T/C [11]: 64.1%
- viability, T/C [12]: 37.9%
- viability, T/C [13]: 81.5%
- viability, T/C [14]: 82.1%
- viability, T/C [15]: 101%
- viability, T/C [16]: 82.4%
- viability, T/C [17]: 73%
- viability, T/C [18]: 39.8%
- viability, T/C [19]: 97.2%
- viability, T/C [20]: 85.4%
- viability, T/C [21]: 92%
- viability, T/C [22]: 81.8%
- viability, T/C [23]: 83.8%
- viability, T/C [24]: 33.4%
- viability, T/C [25]: 87.3%
- viability, T/C [26]: 85.5%
- viability, T/C [27]: 96.7%
- viability, T/C [28]: 74.8%
- viability, T/C [29]: 81.6%
- viability, T/C [30]: 35%
- viability, T/C [31]: 74.8%
- viability, T/C [32]: 78.5%
- viability, T/C [33]: 85.2%
- viability, T/C [34]: 80%
- viability, T/C [35]: 82.2%
- viability, T/C [36]: 28.4%

SMILES: O=C(c1cc(Cc2n[nH]c(=O)c3ccccc23)ccc1F)N1CCN(C(=O)C2CC2)CC1 + Cc1cccc(N(C)C(=O)C2C(O)CCN2c2nc(C)cc(C(F)(F)F)c2C#N)c1
- IC50 (second compound 0.0316 µM): 6.37 µM
- IC50 (second compound 0.1 µM): 7.6 µM
- IC50 (second compound 0.316 µM): 8.22 µM
- IC50 (second compound 1 µM): 8.16 µM
- IC50 (second compound 3.16 µM): 6.72 µM
- IC50 (second compound 10 µM): 6.14 µM
- viability, T/C [1]: 79.5%
- viability, T/C [2]: 89.5%
- viability, T/C [3]: 83.8%
- viability, T/C [4]: 80.9%
- viability, T/C [5]: 76.8%
- viability, T/C [6]: 32.7%
- viability, T/C [7]: 89.2%
- viability, T/C [8]: 89.6%
- viability, T/C [9]: 75.7%
- viability, T/C [10]: 75.8%
- viability, T/C [11]: 74.1%
- viability, T/C [12]: 42.5%
- viability, T/C [13]: 90.2%
- viability, T/C [14]: 80.2%
- viability, T/C [15]: 82.8%
- viability, T/C [16]: 85.3%
- viability, T/C [17]: 71.7%
- viability, T/C [18]: 45.1%
- viability, T/C [19]: 88.3%
- viability, T/C [20]: 87.9%
- viability, T/C [21]: 77.7%
- viability, T/C [22]: 83.5%
- viability, T/C [23]: 95.4%
- viability, T/C [24]: 42.2%
- viability, T/C [25]: 73.5%
- viability, T/C [26]: 78.4%
- viability, T/C [27]: 81.5%
- viability, T/C [28]: 76.7%
- viability, T/C [29]: 97.2%
- viability, T/C [30]: 33.4%
- viability, T/C [31]: 78.2%
- viability, T/C [32]: 78.9%
- viability, T/C [33]: 85.5%
- viability, T/C [34]: 72.4%
- viability, T/C [35]: 73.4%
- viability, T/C [36]: 33.7%

SMILES: CCc1cc2c(N3CCc4c(cc(Cn5ccnc5)cc4-c4cn(C)nc4C(F)(F)F)C3=O)ccnc2c(OC)n1 + Nc1ccc(C#CCN(C(=O)Cc2ncc(C(F)(F)F)cc2C(F)(F)F)c2ccc(F)cc2)nn1
- IC50 (second compound 0.0316 µM): > 10 µM
- IC50 (second compound 0.1 µM): > 10 µM
- IC50 (second compound 0.316 µM): > 10 µM
- IC50 (second compound 1 µM): > 10 µM
- IC50 (second compound 3.16 µM): > 10 µM
- IC50 (second compound 10 µM): > 10 µM
- viability, T/C [1]: 83.1%
- viability, T/C [2]: 68.2%
- viability, T/C [3]: 61.3%
- viability, T/C [4]: 59.1%
- viability, T/C [5]: 61.6%
- viability, T/C [6]: 54.8%
- viability, T/C [7]: 65.1%
- viability, T/C [8]: 71.1%
- viability, T/C [9]: 61.2%
- viability, T/C [10]: 62.8%
- viability, T/C [11]: 56.2%
- viability, T/C [12]: 53.9%
- viability, T/C [13]: 74.3%
- viability, T/C [14]: 72.3%
- viability, T/C [15]: 67%
- viability, T/C [16]: 64.8%
- viability, T/C [17]: 59.1%
- viability, T/C [18]: 49.9%
- viability, T/C [19]: 84.5%
- viability, T/C [20]: 69%
- viability, T/C [21]: 65.2%
- viability, T/C [22]: 64.8%
- viability, T/C [23]: 56%
- viability, T/C [24]: 53.6%
- viability, T/C [25]: 71.4%
- viability, T/C [26]: 69.7%
- viability, T/C [27]: 65.8%
- viability, T/C [28]: 70.8%
- viability, T/C [29]: 60%
- viability, T/C [30]: 52.6%
- viability, T/C [31]: 85.4%
- viability, T/C [32]: 79.2%
- viability, T/C [33]: 61.6%
- viability, T/C [34]: 67.5%
- viability, T/C [35]: 55%
- viability, T/C [36]: 49.6%
